Earlier results in patent publication US20160199317A1, “ESTRADIOL CONTAINING TRANSDERMAL DRUG DELIVERY SYSTEMS AND COMPOSITIONS” (3M INNOVATIVE PROPERTIES COMPANY, priority 2013, published 2016).

Settings: background statement

C[C@]12CC[C@@H]3c4ccc(O)cc4CC[C@H]3[C@@H]1CC[C@@H]2O [estradiol, estra-1,3,5(10)-triene-3,17β-diol]
half-life: about one
